The values that follow come from ChEMBL document CHEMBL1909046, “DrugMatrix in vitro pharmacology data”.

Test [1] can be described thus: DRUGMATRIX: Calcium Channel Type L, Phenylalkylamine radioligand binding (ligand: [3H] (-)-Desmethoxyverapamil (D-888)). It is filed as cell membranes, Rattus norvegicus, Wistar, Brain, Membrane. Particulars: Not Active = under 50% inhibition at 10 µM.
Test [2] concerns the target T1, Alpha-2A adrenergic receptor (Homo sapiens, UniProt P08913). Further: in other assays of this panel Not Active means under 50% inhibition at 10 µM.
T1 sequence (P08913 whole entry): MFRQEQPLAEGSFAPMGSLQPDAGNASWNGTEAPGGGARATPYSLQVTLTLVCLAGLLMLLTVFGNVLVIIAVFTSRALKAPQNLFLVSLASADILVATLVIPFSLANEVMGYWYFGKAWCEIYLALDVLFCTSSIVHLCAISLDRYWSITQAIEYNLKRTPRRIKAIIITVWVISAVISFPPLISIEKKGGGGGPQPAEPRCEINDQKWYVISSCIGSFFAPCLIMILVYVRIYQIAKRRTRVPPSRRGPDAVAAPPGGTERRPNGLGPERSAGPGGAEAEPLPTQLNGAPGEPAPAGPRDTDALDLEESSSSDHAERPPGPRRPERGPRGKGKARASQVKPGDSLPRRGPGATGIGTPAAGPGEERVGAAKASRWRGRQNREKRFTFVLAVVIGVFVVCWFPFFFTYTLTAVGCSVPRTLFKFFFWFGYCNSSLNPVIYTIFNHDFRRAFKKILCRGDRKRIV
The class given is cell membranes, Sf9, Membrane. Particulars: sf9.

In test [3] the target is T2, Neuropeptide Y receptor type 2 (Homo sapiens, UniProt P49146). Further: in other assays of this panel Not Active means under 50% inhibition at 10 µM.
T2 sequence (P49146 whole entry): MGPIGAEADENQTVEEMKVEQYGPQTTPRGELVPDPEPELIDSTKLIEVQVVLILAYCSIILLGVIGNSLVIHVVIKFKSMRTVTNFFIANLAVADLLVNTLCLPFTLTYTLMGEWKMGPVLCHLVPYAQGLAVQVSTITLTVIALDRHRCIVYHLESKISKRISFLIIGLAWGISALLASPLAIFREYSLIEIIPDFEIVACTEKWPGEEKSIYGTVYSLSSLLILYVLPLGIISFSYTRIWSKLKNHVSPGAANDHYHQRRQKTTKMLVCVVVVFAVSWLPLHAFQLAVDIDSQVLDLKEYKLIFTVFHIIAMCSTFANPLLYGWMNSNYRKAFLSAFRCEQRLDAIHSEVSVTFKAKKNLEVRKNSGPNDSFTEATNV
The class given is cell membranes, Membrane. Particulars: kan-ts.

Test [4] can be described thus: DRUGMATRIX: Imidazoline I2, Central radioligand binding (ligand: [3H] Idazoxan). It is filed as cell membranes, Rattus norvegicus, Wistar, Cerebral cortex, Membrane. Particulars: Not Active = under 50% inhibition at 10 µM.
Test [5] has as its target 5-hydroxytryptamine receptor 4 (Cavia porcellus, UniProt O70528). The class given is cell membranes, Dunkin-Hartley, Striatum, Membrane. Further: in other assays of this panel Not Active means under 50% inhibition at 10 µM.

*1 amine or outer side, *2 acyl side, *3 side chain or, on linkers, in order; H or OH if unused. Where a SMILES comes first, the peptide text is derived from it. Bridges are numbered along the chain shown (N, C = ends). Roman numbers before positions name the chains, in order. [ ]: non-standard residue; d: D form. Actinocin(1to9) = Cc1c2oc3c(C)ccc(C(=O)[*:2])c3nc-2c(C(=O)[*:1])c(N)c1=O; NMeV = CN[C@H](C(=O)O)C(C)C; Sar = CNCC(=O)O

Broadly, the IC50 is the concentration that gives 50% inhibition. The Ki is the equilibrium dissociation constant of an inhibitor or competing ligand from its target.

Chain of 5-hydroxytryptamine receptor 4 (O70528 whole entry): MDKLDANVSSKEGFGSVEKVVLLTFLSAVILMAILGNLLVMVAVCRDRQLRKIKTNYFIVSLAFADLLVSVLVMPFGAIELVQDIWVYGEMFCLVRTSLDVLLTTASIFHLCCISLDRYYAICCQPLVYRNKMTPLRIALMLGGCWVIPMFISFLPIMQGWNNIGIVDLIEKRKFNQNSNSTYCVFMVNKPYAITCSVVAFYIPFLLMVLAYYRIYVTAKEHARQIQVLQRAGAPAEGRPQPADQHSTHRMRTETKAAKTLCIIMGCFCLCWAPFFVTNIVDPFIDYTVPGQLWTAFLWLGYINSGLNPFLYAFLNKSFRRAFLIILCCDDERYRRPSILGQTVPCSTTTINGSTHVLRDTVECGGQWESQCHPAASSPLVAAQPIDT

With `COc1ccc(C[C@H]2NC[C@H](O)[C@H]2OC(C)=O)cc1` [ANISOMYCIN], the IC50 result in test [1], in test [2], in test [3], in test [4] and in test [5] was “Not Active” in each case. For the same compound, the Ki result in test [1], in test [2], in test [3], in test [4] and in test [5] was “Not Active” each time.

Regarding `CNNCc1ccc(C(=O)NC(C)C)cc1` [PROCARBAZINE], the IC50 result in test [1], in test [2], in test [3], in test [4] and in test [5] was “Not Active” each time. For the same compound, the Ki result in test [1] and in test [4] was “Not Active” in each case.

For `Cc1onc(O)c1CC(N)C(=O)O` (racemic) [(R,S)-AMPA], the IC50 result in test [1], in test [2], in test [3], in test [4] and in test [5] was “Not Active” in each case. The Ki entry in test [1] and in test [4] was “Not Active” each time.

Turning to `Cc1c(O)c(=O)ccn1C` [DEFERIPRONE], the IC50 result in test [1], in test [2], in test [3], in test [4] and in test [5] was “Not Active” throughout. Also, the Ki result in test [1] and in test [4] was “Not Active” throughout.

On to `Nc1ncn([C@@H]2O[C@H](CO)[C@@H](O)[C@H]2O)c(=O)n1` [AZACITIDINE], for which the IC50 result in test [1], in test [2], in test [3], in test [4] and in test [5] was “Not Active” in each case. For the same compound, the Ki result in test [1] and in test [4] was “Not Active” throughout.

With `CCn1cc(C(=O)O)c(=O)c2cc(F)c(N3CCNCC3)cc21` [NORFLOXACIN], the IC50 result in test [1], in test [2], in test [3], in test [4] and in test [5] was “Not Active” in each case. In addition, the Ki result in test [1] and in test [4] was “Not Active” each time.

For `CN(C)CCCN1c2ccccc2Sc2ccc(Cl)cc21` [CHLORPROMAZINE], the concentration for half-maximal inhibition (IC50) is 1.53 µM in test [1] (read-out: IC50), “Not Active” in test [3], 2.67 µM in test [4] (read-out: IC50) and “Not Active” in test [5]. Also, the inhibitory constant (Ki) in test [1] (read-out: Ki) was determined as 1.49 µM; in test [4] (read-out: Ki), 1.78 µM.

Take `CCOC(=O)C1=C(COCCN)NC(C)=C(C(=O)OC)C1c1ccccc1Cl` (stereo not given) [AMLODIPINE]: the half-maximal inhibitory concentration (IC50) result in test [1], in test [3], in test [4] and in test [5] was “Not Active” throughout. For the same compound, the Ki result in test [1] and in test [4] was “Not Active” in each case.

Take `CC1Cc2ccccc2N1NC(=O)c1ccc(Cl)c(S(N)(=O)=O)c1` (stereo not given) [INDAPAMIDE]: the half-maximal inhibitory concentration (IC50) entry in test [1], in test [2], in test [3], in test [4] and in test [5] was “Not Active” each time. In addition, the inhibition constant Ki entry in test [1] and in test [4] was “Not Active” in each case.

In the case of LEAD (II) ACETATE, the half-maximal inhibitory concentration (IC50) entry in test [1] is “Not Active”; in test [2] (read-out: IC50), 3.6 µM; in test [3], “Not Active”; in test [4], “Not Active”; in test [5] it was “Not Active”. In addition, the inhibitory constant (Ki) result in test [1], in test [3], in test [4] and in test [5] was “Not Active” in each case.

As to `Cc1c2oc3c(C)ccc(C(=O)N[C@@H]4C(=O)N[C@H](C(C)C)C(=O)N5CCC[C@H]5C(=O)N(C)CC(=O)N(C)[C@@H](C(C)C)C(=O)O[C@@H]4C)c3nc-2c(C(=O)N[C@@H]2C(=O)N[C@H](C(C)C)C(=O)N3CCC[C@H]3C(=O)N(C)CC(=O)N(C)[C@@H](C(C)C)C(=O)O[C@@H]2C)c(N)c1=O` [DACTINOMYCIN] (I: T[dV]P[Sar][NMeV] / II: T[dV]P[Sar][NMeV]; ester I:1-I:C, II:1-II:C; linker I:N-II:N via Actinocin(1to9)), the IC50 result in test [1], in test [2], in test [3], in test [4] and in test [5] was “Not Active” in each case. Moreover, the inhibitory constant (Ki) result in test [1] and in test [4] was “Not Active” each time.

`NCCCCCC(=O)O` [AMINOCAPROIC ACID]: the IC50 result in test [1], in test [2], in test [3], in test [4] and in test [5] was “Not Active” each time. The inhibition constant (Ki) entry in test [1] and in test [4] was “Not Active” in each case.

Take `c1ccc(Nc2ccc(Nc3ccccc3)cc2)cc1`: the IC50 entry in test [1], in test [2], in test [3], in test [4] and in test [5] was “Not Active” throughout. Besides, the inhibition constant Ki result in test [1] and in test [4] was “Not Active” each time.

As for `NC(=O)N1c2ccccc2CCc2ccccc21`, the IC50 entry in test [1], in test [2], in test [3], in test [4] and in test [5] was “Not Active” throughout. Besides, the inhibition constant (Ki) entry in test [1] and in test [4] was “Not Active” throughout.

For the compound `Cc1ccc(-c2cc(C(F)(F)F)nn2-c2ccc(S(N)(=O)=O)cc2)cc1` [CELECOXIB], the 50% inhibitory concentration (IC50) entry in test [1], in test [2], in test [3], in test [4] and in test [5] was “Not Active” throughout. Moreover, the inhibition constant Ki result in test [1] and in test [4] was “Not Active” in each case.

Regarding `Cc1onc(-c2ccccc2Cl)c1C(=O)N[C@@H]1C(=O)N2[C@@H]1SC(C)(C)[C@@H]2C(=O)O` [CLOXACILLIN], the IC50 result in test [1], in test [2], in test [3], in test [4] and in test [5] was “Not Active” in each case. Further, the Ki result in test [1] and in test [4] was “Not Active” each time.

As to `CCCN1C[C@H](CSC)C[C@@H]2c3cccc4[nH]cc(c34)C[C@H]21` [PERGOLIDE], the half-inhibitory concentration (IC50) is 0.913 µM in test [1] (read-out: IC50), “Not Active” in test [3], 3.08 µM in test [4] (read-out: IC50) and “Not Active” in test [5]. The inhibitory constant (Ki) is 0.887 µM in test [1] (read-out: Ki) and 2.05 µM in test [4] (read-out: Ki).

With LIPOPOLYSACCHARIDE E. COLI O55:B5, the half-maximal inhibitory concentration (IC50) entry in test [1], in test [2], in test [3], in test [4] and in test [5] was “Not Active” each time. Also, the inhibition constant (Ki) result in test [1], in test [2], in test [3], in test [4] and in test [5] was “Not Active” each time.

With `CC(O)CO` (stereo not given) [PROPYLENE GLYCOL], the 50% inhibitory concentration (IC50) result in test [1], in test [2], in test [3], in test [4] and in test [5] was “Not Active” each time. In addition, the Ki entry in test [1] and in test [4] was “Not Active” each time.

Regarding `CC(C)C(Br)C(=O)NC(N)=O` (stereo not given) [BROMISOVALUM], the 50% inhibitory concentration (IC50) entry in test [1], in test [2], in test [3], in test [4] and in test [5] was “Not Active” each time. Moreover, the Ki result in test [1] and in test [4] was “Not Active” in each case.

Regarding `CCC(C)n1ncn(-c2ccc(N3CCN(c4ccc(OCC5COC(Cn6cncn6)(c6ccc(Cl)cc6Cl)O5)cc4)CC3)cc2)c1=O` (stereo not given) [ITRACONAZOLE], the half-maximal inhibitory concentration (IC50) result in test [1], in test [2], in test [3], in test [4] and in test [5] was “Not Active” in each case. For the same compound, the inhibition constant Ki entry in test [1] and in test [4] was “Not Active” in each case.

For `Cc1ccc(N(CC2=NCCN2)c2cccc(O)c2)cc1` [PHENTOLAMINE], the IC50 in test [1] (read-out: IC50) was 0.746 µM; in test [3], “Not Active”; in test [4] (read-out: IC50), 0.058 µM; in test [5], “Not Active”. The Ki in test [1] (read-out: Ki) was found to be 0.725 µM; in test [4] (read-out: Ki), 0.039 µM.

Take `Cc1ccc(/N=C/N(C)/C=N/c2ccc(C)cc2C)c(C)c1` [AMITRAZ]: the half-maximal inhibitory concentration (IC50) entry was “Not Active” in test [1], “Not Active” in test [3], 0.0477 µM in test [4] (read-out: IC50) and “Not Active” in test [5]. Moreover, the inhibition constant Ki result was “Not Active” in test [1] and 0.0318 µM in test [4] (read-out: Ki).

With `Clc1cccc(Cl)c1NC1=NCCN1` [CLONIDINE], the half-inhibitory concentration (IC50) entry in test [1] was “Not Active”; in test [3], “Not Active”; in test [4] (read-out: IC50), 0.064 µM; in test [5] it was “Not Active”. Besides, the inhibition constant (Ki) entry is “Not Active” in test [1] and 0.043 µM in test [4] (read-out: Ki).
